Tests used:
[1] = tested on: circulating lymphocytes; test: Blood Lymphocyte Reduction Assay (BLR) in rats; format: in vivo; details: Lewis rats, oral, vs vehicle group
Description: (§1) Lewis rats or BALB/c mice were dosed orally with test article (as a solution or suspension in the vehicle) or vehicle alone (polyethylene glycol 300, “PEG300”). Blood was drawn at 4 hr and 24 h by retro-orbital bleeding. Blood lymphocyte counts were determined on an ADVIA® 120 Hematology Analyzer (Siemens Healthcare Diagnostics). The results were measured as a reduction in the percentage of circulating lymphocytes as compared to the vehicle treated group at the 4 hr and 24 hr measurement. The results represent the average results of all animals within each treatment group (n=3-4).
(§2) Examples 1 and 2 were tested in the Blood Lymphocyte Reduction assay (BLR) described hereinabove and the results are shown in Table D for rats and Table E for mice.

[2] = tested on: circulating lymphocytes; test: Blood Lymphocyte Reduction Assay (BLR) in mice; format: in vivo; details: BALB/c mice, oral, vs vehicle group
Description: as §1, §2

[3] = tested on: adjuvant induced arthritis (paw swelling); test: Rat Adjuvant Induced Arthritis Assay (AA); format: in vivo, Lewis rats; details: for Paw Swelling (mL) on Day 20, Mean: male Lewis rats, vehicle mean 1.53
Description: Male Lewis rats (150-175 g; Harlan, n=8 treatment group) were immunized at the base of the tail with […] of 10 mg/ml freshly ground Mycobacterium butyricum (Difco Laboratories) in incomplete Freund's adjuvant (sigma) Animals were dosed once daily with the test article (as a solution or suspension in the vehicle) or vehicle alone (polyethylene glycol 300, “PEG300”) starting from the day of immunization. The volumes of their hind paws were measured in a water displacement plethysmometer (Ugo Basile, Italy). The baseline paw measurements were taken before onset of the disease (between day 7 to day 10). The paw measurements were then taken three times a week until the end of the study on day 20. All procedures involving animals were reviewed and approved by the Institutional Animal Care Use Committee.

[4] = target: S1P1 (Homo sapiens, UniProt P21453); test: S1P1 Binding Assay (33P-S1P ligand competition, membranes from CHO cells); set-up: expressed in transfected cells; host or cells: CHO cells; details: membranes of CHO cells expressing human S1P1; 0.03 nM 33P-S1P; 60 min room temperature
S1P1, sequence (P21453 whole entry): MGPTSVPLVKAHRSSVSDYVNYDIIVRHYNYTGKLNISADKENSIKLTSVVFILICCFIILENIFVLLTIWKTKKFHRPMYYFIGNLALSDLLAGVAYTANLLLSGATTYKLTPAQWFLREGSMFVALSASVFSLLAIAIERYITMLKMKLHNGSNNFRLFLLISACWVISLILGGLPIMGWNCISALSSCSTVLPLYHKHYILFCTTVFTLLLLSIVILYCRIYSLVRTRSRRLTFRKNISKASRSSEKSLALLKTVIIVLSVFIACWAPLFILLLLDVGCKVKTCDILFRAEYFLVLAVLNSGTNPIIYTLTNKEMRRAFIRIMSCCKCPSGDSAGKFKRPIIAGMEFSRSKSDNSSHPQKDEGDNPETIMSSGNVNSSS
Outline: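 Membranes from CHO cells expressing human S1P1 (2 μg/well) were incubated with 0.03 nM ^33P-S1P and test compound for 60 min at room temperature. Bound radioactivity was collected on GF/B filters and counted. IC50 is the concentration reducing specific radioligand binding by 50%.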

[5] = target: S1P3 (Homo sapiens, UniProt Q99500); test: Method B: Receptor [35S] GTPγS SPA Binding Assay, membranes from S1P3 transfected CHO cells; format: biochemical; set-up: expressed in transfected cells; host or cells: CHO cells; details: S1P3 transfected CHO cell membranes, NC = a satisfactory dose response curve was not obtained
S1P3, sequence (Q99500 whole entry, species assumed): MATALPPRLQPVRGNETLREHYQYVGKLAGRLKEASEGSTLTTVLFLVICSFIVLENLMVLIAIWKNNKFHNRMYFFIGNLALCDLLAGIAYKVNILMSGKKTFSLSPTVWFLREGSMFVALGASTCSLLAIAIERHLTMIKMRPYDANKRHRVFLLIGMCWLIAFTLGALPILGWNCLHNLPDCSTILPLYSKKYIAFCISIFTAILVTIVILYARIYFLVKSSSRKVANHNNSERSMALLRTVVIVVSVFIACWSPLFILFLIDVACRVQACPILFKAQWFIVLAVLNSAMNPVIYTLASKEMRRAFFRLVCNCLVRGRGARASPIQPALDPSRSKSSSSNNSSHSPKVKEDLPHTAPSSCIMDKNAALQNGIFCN
Description: Membranes prepared from S1P1 or S1P3 transfected CHO cells (2 μg protein) were incubated in 96-well white plates (CORNING® 3693) with test compounds diluted in DMSO, in 50 μl of reaction mixture containing 7.5 μl WGA-PVT beads (20 mg/ml), and 5 μM GDP, 20 mM HEPES pH 7.4, 100 mM NaCl, 1 mM EDTA, 5 mM MgCl2, 10 μg/ml saponin, 0.1% BSA, and 1 μM leupeptin. The assay was initiated with the addition of 25 μl of 0.2 nM [^35S]-GTPγS (1250 Ci/mmol; NEN) in assay buffer. After 90 min incubation at room temperature, spin the plate at 1000 rpm for 5 min. The bound radionuclides were measured at TOPCOUNT®, expressed as % response relative to S1P (1 μM) activation. Data was analyzed using the four parameter logistic equation in Excel. The four parameters in the equation, Y=A+((B−A)/(1+((EC50/X)^D))), are described as following: A is the Y value (agonist activity) at the bottom plateau; B is the Y value at the top plateau; EC50 is the X value (agonist concentration) when the response is halfway between bottom and top; D is Hill coefficient. Curves were not generated for compounds having Ymax values were below 50%.
Compounds of the present invention and Comparative Compound A were tested in the Receptor [^35S] GTPγS Binding Assays (Method A) and Receptor [35S] In some instances, the value is an average of multiple experiments where N is the number of experiments conducted that provided satisfactory dose response curves. When more than one batch of an example was tested, the value presented is from a batch which allowed a comparison of GTPγS S1P1 and GTPγS S1P3 in which the most number of experiments were performed. Preferably, the same batch was examined in Method A and Method B. Data was not averaged across different batches of an example compound.

IC50 [4]: 0.091 nM | EC50 [5]: 510 nM
Compound: O=C(O)C1CN(Cc2ccc(-c3noc(-c4onc(-c5ccccc5)c4C(F)(F)F)n3)cc2)C1 [Example 1, 1-(4-(5-(3-Phenyl-4-(trifluoromethyl)isoxazol-5-yl)-1,2,4-oxadiazol-3-yl)benzyl)azetidine-3-carboxylic acid]
% reduction in lymphocytes at 4 hr. ([1]; 0.03 mg/kg): 75% | % reduction in lymphocytes at 24 hr. ([1]; 0.03 mg/kg): 45% | % reduction in lymphocytes at 4 hr. ([1]; 0.3 mg/kg): 82% | % reduction in lymphocytes at 24 hr. ([1]; 0.3 mg/kg): 73% | % reduction in lymphocytes at 4 hr. ([2]; 0.001 mg/kg): 12% | % reduction in lymphocytes at 24 hr. ([2]; 0.001 mg/kg): 31% | % reduction in lymphocytes at 4 hr. ([2]; 0.01 mg/kg): 32% | % reduction in lymphocytes at 24 hr. ([2]; 0.01 mg/kg): 45% | % reduction in lymphocytes at 4 hr. ([2]; 0.1 mg/kg): 85% | % reduction in lymphocytes at 24 hr. ([2]; 0.1 mg/kg): 89% | % reduction in lymphocytes at 4 hr. ([2]; 1.0 mg/kg): 90% | % reduction in lymphocytes at 24 hr. ([2]; 1.0 mg/kg): 91% | disease progression as measured by paw swelling ([3]; Lewis rat, prophylactic oral dosing): inhibits disease progression | Paw Swelling (mL) on Day 20, Mean ([3]; 0.03 mg/kg once daily from day of immunization): 1.39 mL | Paw Swelling (mL) on Day 20, Mean ([3]; 0.1 mg/kg once daily from day of immunization): 0.55 mL | Paw Swelling (mL) on Day 20, Mean ([3]; 0.5 mg/kg once daily from day of immunization): 0.23 mL | Paw Swelling (mL) on Day 20, Mean ([3]; 3.0 mg/kg once daily from day of immunization): 0.29 mL
